Results published in paper PMC10397291, “Molecular pathway and structural mechanism of human oncochannel TRPV6 inhibition by the phytocannabinoid tetrahydrocannabivarin” (Nature Communications, 2023).
“Also recorded” adds a separate entry of the source.

Legend:
TRPV6 [1] = conditions: at the tested doses; cited from earlier work
TRPV5 = system: TRPV5; design: method as in PMID 30170189; conditions: at the tested doses; cited from earlier work
L490W mutant hTRPV6 = biological target: T1, L490W mutant hTRPV6 (Homo sapiens, UniProt Q9H1D0, L530W); assay: Fura-2 AM Ca2+ uptake, L490W mutant hTRPV6; format: cell-based; conditions: L490W
T1 construct: Full-length wild-type or mutant human TRPV6 was expressed in HEK 293S cells as described above; expressed in transfected cells; host or cells: HEK 293S GnTI- (baculovirus/BacMam transduction)
T1 sequence (Q9H1D0 41-765 L530W limits assumed): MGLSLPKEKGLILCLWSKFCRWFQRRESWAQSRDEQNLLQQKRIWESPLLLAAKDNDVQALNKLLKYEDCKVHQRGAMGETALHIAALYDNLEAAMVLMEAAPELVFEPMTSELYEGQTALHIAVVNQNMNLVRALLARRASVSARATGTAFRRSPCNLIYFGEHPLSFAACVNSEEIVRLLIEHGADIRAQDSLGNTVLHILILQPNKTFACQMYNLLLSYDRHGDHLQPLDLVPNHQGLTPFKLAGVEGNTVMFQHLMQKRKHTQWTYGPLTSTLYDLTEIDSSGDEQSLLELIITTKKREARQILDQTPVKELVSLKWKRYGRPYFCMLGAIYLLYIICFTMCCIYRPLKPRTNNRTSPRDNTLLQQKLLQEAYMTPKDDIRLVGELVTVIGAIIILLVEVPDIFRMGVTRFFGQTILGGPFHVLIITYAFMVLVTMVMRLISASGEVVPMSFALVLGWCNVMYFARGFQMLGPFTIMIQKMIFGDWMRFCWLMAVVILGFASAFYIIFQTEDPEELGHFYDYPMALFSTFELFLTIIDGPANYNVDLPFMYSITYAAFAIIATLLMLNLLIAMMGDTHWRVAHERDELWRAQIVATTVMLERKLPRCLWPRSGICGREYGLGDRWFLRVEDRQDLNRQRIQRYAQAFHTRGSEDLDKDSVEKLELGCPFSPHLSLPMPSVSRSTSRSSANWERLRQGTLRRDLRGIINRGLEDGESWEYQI

TRPV6 [2] = system: TRPV6; design: method as in doi:10.1038/nature17975; conditions: ref doi:10.1038/nature17975; cited from earlier work
[3] = biological target: C-terminally truncated human TRPV6 (hTRPV6-CtD, residues 1–666 of wild-type channel) (human); assay: cryo-EM structure; hTRPV6-CtD in cNW30 nanodiscs with soybean lipids, 114 µM THCV; 150 mM NaCl, 20 mM Tris-HCl pH 8.0, 1 mM βME; C4 symmetry, 2.79 Å
[4] = biological target: full-length human TRPV6 L490W mutant with C-terminal streptavidin affinity tag and eGFP (FSEC construct) (human); assay: SEC; fluorescence-detection SEC (FSEC) of eGFP-tagged channels; HEK cells solubilised in 1% DDM, 0.1% CHS, supernatant on Superose 6 10/300 GL in 1 mM DDM, 20 mM Tris-HCl pH 8.0, 150 mM NaCl, 1 mM βME
[5] = biological target: full-length wild-type human TRPV6 with C-terminal streptavidin affinity tag and eGFP (FSEC construct) (human); assay: as above

In the case of `C=C(C)[C@@H]1CCC(C)=C[C@H]1c1c(O)cc(CCCCC)cc1O` [CBD, cannabidiol], the “antagonist effect on TRPV6” value (TRPV6 [1]) is given as “Lack of CBD effect; also recorded: do not modulate; also recorded: ineffective” and the “antagonist effect on TRPV5” value (TRPV5) is given as “ineffective”.

For `[Gd+3]` [Gd3+], the “block of Ca2+ uptake” value (L490W mutant hTRPV6; 100 µM Gd3+) is listed as “complete block”, the “inhibition of calcium uptake” value (L490W mutant hTRPV6; 100 mM Gd3+ as printed, n = 3) is listed as “complete inhibition” and the “block of the calcium uptake signal” value (TRPV6 [2]) is listed as “full block of the signal”.

“C-terminally truncated human TRPV6 (hTRPV6-CtD, residues 1–666 of wild-type channel) (domain or fragment)” gave a stoichiometry N [3] of 4.

For “full-length human TRPV6 L490W mutant with C-terminal streptavidin affinity tag and eGFP (FSEC construct) (natural protein)”, the stoichiometry N [4] was 4.

In the case of “full-length wild-type human TRPV6 with C-terminal streptavidin affinity tag and eGFP (FSEC construct) (natural protein)”, the stoichiometry N [5] is reported as 4.
